According to ChEMBL document CHEMBL2046335, “Synthesis and discovery of N-carbonylpyrrolidine- or N-sulfonylpyrrolidine-containing uracil derivatives as potent human deoxyuridine triphosphatase inhibitors” (J Med Chem, 2012):

What was measured:
[1] = Competitive inhibition of Escherichia coli dUTPase
[2] = target: T1, Deoxyuridine 5'-triphosphate nucleotidohydrolase, mitochondrial (Homo sapiens, UniProt P33316); experiment: Inhibition of human dUTPase using [5-3H]dUTP as substrate after 15 mins by HPLC analysis
T1 sequence (P33316 whole entry): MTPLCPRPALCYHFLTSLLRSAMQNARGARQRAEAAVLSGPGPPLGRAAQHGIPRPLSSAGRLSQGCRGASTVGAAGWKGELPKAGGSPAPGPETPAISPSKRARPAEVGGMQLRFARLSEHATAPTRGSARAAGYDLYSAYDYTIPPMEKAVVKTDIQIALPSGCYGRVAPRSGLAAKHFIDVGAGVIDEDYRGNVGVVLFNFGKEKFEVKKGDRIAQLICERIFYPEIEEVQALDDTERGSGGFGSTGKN

[3] = Antiproliferative activity against human HeLaS3 cells after 72 hrs by crystal violet assay; format: functional, cell-based; conditions: HeLa S3, 72 h
[4] = Potentiation of antiproliferative activity of FdUrd against human HeLaS3 cells assessed as reduction in FdUrd T/C value by half after 24 hrs by crystal violet assay; format: functional, cell-based; conditions: HeLa S3, 24 h
[5] = target: T1, Deoxyuridine 5'-triphosphate nucleotidohydrolase, mitochondrial; experiment: Inhibition of human dUTPase

IC50 [2] [µM] | Structure (SMILES) | further results
0.32 | O=c1ccn(CCCS(=O)(=O)N2CCC[C@@H]2C(O)(c2ccccc2)c2ccccc2)c(=O)[nH]1 | EC50 [3]: > 100 µM; EC50 [4]: 300 nM
0.29 | O=C(CCCn1ccc(=O)[nH]c1=O)N1CCC[C@H]1C(O)(c1ccccc1)c1ccccc1 | EC50 [3]: > 100 µM; EC50 [4]: 270 nM
 | O=c1ccn([C@H]2C[C@H](O)[C@@H](COP(=O)(O)CP(=O)(O)OP(=O)(O)OCc3ccccc3)O2)c(=O)[nH]1 | Ki [5]: 300 nM
97 | CC(C)(C)NC(=O)CCCn1ccc(=O)[nH]c1=O | 
> 30 | CC(C)(C)CC(C)(C)NC(=O)CCn1ccc(=O)[nH]c1=O | 
22 | CCC(CC)(CC)NC(=O)CCn1ccc(=O)[nH]c1=O | 
> 30 | CC(C)(C)NC(=O)CCn1ccc(=O)[nH]c1=O | 
> 30 | O=C(CCn1ccc(=O)[nH]c1=O)N(Cc1ccccc1)Cc1ccccc1 | 
> 30 | O=C(CCn1ccc(=O)[nH]c1=O)NC(c1ccccc1)c1ccccc1 | 
> 30 | O=C(CCn1ccc(=O)[nH]c1=O)NCC(c1ccccc1)c1ccccc1 | 
> 30 | O=C(CCn1ccc(=O)[nH]c1=O)NCCC(c1ccccc1)c1ccccc1 | 
> 30 | O=C(CCn1ccc(=O)[nH]c1=O)N1CCC(Cc2ccccc2)CC1 | 
7.3 | CC(C)(NC(=O)CCn1ccc(=O)[nH]c1=O)C(O)(c1ccccc1)c1ccccc1 | 
> 30 | O=C(CCCn1ccc(=O)[nH]c1=O)Nc1ccccc1 | 
30 | CC(C)(C)CC(C)(C)NC(=O)CCCn1ccc(=O)[nH]c1=O | 
> 30 | O=C(CCCn1ccc(=O)[nH]c1=O)NCc1ccccc1 | 
> 30 | CC(C)(Cc1ccccc1)NC(=O)CCCn1ccc(=O)[nH]c1=O | 
> 30 | CC(C)(NC(=O)CCCn1ccc(=O)[nH]c1=O)c1ccccc1 | 
> 30 | CCC(CC)(CC)NC(=O)CCCn1ccc(=O)[nH]c1=O | 
> 30 | O=C(CCCn1ccc(=O)[nH]c1=O)NC(c1ccccc1)c1ccccc1 | 
16 | O=C(CCCn1ccc(=O)[nH]c1=O)NCC(c1ccccc1)c1ccccc1 | 
2.5 | CC(C)(NC(=O)CCCn1ccc(=O)[nH]c1=O)C(O)(c1ccccc1)c1ccccc1 | EC50 [3]: > 100 µM; EC50 [4]: 3000 nM

IC50 [2] [µM] | Structure (SMILES) | further results
1.3 | CN(CC(c1ccccc1)c1ccccc1)C(=O)CCCn1ccc(=O)[nH]c1=O | EC50 [3]: > 100 µM; EC50 [4]: 1200 nM
> 30 | CC(C)(Cc1ccc2ccccc2c1)NC(=O)CCCn1ccc(=O)[nH]c1=O | 
21 | CC(C)(CCc1ccccc1)NC(=O)CCCn1ccc(=O)[nH]c1=O | 
> 30 | CC(C)(CO)NC(=O)CCCn1ccc(=O)[nH]c1=O | 
1.1 | CN(CC(O)(c1ccccc1)c1ccccc1)C(=O)CCCn1ccc(=O)[nH]c1=O | 
10 | O=C(CCCn1ccc(=O)[nH]c1=O)N1CCC[C@@H]1C(O)(c1ccccc1)c1ccccc1 | 
0.35 | O=C(CCCn1ccc(=O)[nH]c1=O)N1CCC[C@H]1C(O)(c1cccc(F)c1)c1cccc(F)c1 | 
0.6 | O=C(CCCn1ccc(=O)[nH]c1=O)N1CCC[C@H]1C(O)(c1ccc(F)cc1)c1ccc(F)cc1 | 
0.58 | O=C(CCCn1ccc(=O)[nH]c1=O)N1CCC[C@H]1C(O)(c1cccc(Cl)c1)c1cccc(Cl)c1 | 
> 1 | O=C(CCCn1ccc(=O)[nH]c1=O)N1CCC[C@H]1C(O)(c1ccc(Cl)cc1)c1ccc(Cl)cc1 | 
> 1 | COc1ccccc1C(O)(c1ccccc1OC)[C@@H]1CCCN1C(=O)CCCn1ccc(=O)[nH]c1=O | 
> 1 | COc1cccc(C(O)(c2cccc(OC)c2)[C@@H]2CCCN2C(=O)CCCn2ccc(=O)[nH]c2=O)c1 | 
> 1 | COc1ccc(C(O)(c2ccc(OC)cc2)[C@@H]2CCCN2C(=O)CCCn2ccc(=O)[nH]c2=O)cc1 | 
0.23 | O=C(CCCn1ccc(=O)[nH]c1=O)N1CCC[C@H]1C(O)(c1cccc(-c2ccsc2)c1)c1cccc(-c2ccsc2)c1 | 
0.15 | O=C(CCCn1ccc(=O)[nH]c1=O)N1CCC[C@H]1C(c1ccccc1)c1ccccc1 | 
> 1 | O=C(CCn1ccc(=O)[nH]c1=O)N1CCC[C@H]1C(O)(c1ccccc1)c1ccccc1 | 
9.4 | O=c1ccn(CCCS(=O)(=O)N2CCC[C@H]2C(O)(c2ccccc2)c2ccccc2)c(=O)[nH]1 | 
0.28 | O=c1ccn(CCCS(=O)(=O)N2CCC[C@@H]2C(O)(c2cccc(F)c2)c2cccc(F)c2)c(=O)[nH]1 | 
0.31 | O=c1ccn(CCCS(=O)(=O)N2CCC[C@@H]2C(O)(c2ccc(F)cc2)c2ccc(F)cc2)c(=O)[nH]1 | 
> 1 | COc1ccccc1C(O)(c1ccccc1OC)[C@H]1CCCN1S(=O)(=O)CCCn1ccc(=O)[nH]c1=O | 
> 1 | COc1cccc(C(O)(c2cccc(OC)c2)[C@H]2CCCN2S(=O)(=O)CCCn2ccc(=O)[nH]c2=O)c1 | 

Structure (SMILES) | IC50 [2] [µM] | further results
O=c1ccn([C@H]2C[C@H](O)[C@@H](COP(=O)(O)NP(=O)(O)OP(=O)(O)O)O2)c(=O)[nH]1 | 15 | Ki [1]: 5 µM
